Results on two compounds are retold here after ChEMBL document CHEMBL1201862, “PubChem BioAssay data set” (2004).

Active and inactive are the calls of the source.

Holding throughout (format): functional
Experiment [1] concerns the target Phosphorylase b kinase gamma catalytic chain, liver/testis isoform (Homo sapiens, UniProt P15735).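 Note: PHKG2 measured as one member of a kinome-wide kinase panel.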
For experiment [2], the target named is Serine/threonine-protein kinase Chk2 (Homo sapiens, UniProt O96017).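 Note: CHEK2 entry within a kinome-wide screening panel.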
For experiment [3], the target named is Casein kinase II subunit alpha (Homo sapiens, UniProt P68400).
The target of experiment [4] is Casein kinase I isoform alpha (Homo sapiens, UniProt P48729).
For experiment [5], the target named is Ribosomal protein S6 kinase alpha-5 (Homo sapiens, UniProt O75582).
In experiment [6] the target is Hepatocyte growth factor receptor (Homo sapiens, UniProt P08581).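 Note: kinase panel profiling across the kinome, with MET as the panel member.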
Experiment [7] deals with Receptor tyrosine-protein kinase erbB-2 (Homo sapiens, UniProt P04626). Put plainly: Navigating the Kinome. Panel member name: ERBB2.
Experiment [8] concerns the target Protein kinase C iota type (Homo sapiens, UniProt P41743).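 Note: measured within a kinome-wide kinase panel, PRKCI as panel member.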
Experiment [9] addresses Serine/threonine-protein kinase 3 (Homo sapiens, UniProt Q13188).
The target in experiment [10] is T1, Sentrin-specific protease 6 (Homo sapiens, UniProt Q9GZR1).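 Note: Luminescence-based dose-response confirmatory assay of SENP6 inhibition, following up an ultra-high-throughput screen.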
T1 sequence (Q9GZR1 whole entry): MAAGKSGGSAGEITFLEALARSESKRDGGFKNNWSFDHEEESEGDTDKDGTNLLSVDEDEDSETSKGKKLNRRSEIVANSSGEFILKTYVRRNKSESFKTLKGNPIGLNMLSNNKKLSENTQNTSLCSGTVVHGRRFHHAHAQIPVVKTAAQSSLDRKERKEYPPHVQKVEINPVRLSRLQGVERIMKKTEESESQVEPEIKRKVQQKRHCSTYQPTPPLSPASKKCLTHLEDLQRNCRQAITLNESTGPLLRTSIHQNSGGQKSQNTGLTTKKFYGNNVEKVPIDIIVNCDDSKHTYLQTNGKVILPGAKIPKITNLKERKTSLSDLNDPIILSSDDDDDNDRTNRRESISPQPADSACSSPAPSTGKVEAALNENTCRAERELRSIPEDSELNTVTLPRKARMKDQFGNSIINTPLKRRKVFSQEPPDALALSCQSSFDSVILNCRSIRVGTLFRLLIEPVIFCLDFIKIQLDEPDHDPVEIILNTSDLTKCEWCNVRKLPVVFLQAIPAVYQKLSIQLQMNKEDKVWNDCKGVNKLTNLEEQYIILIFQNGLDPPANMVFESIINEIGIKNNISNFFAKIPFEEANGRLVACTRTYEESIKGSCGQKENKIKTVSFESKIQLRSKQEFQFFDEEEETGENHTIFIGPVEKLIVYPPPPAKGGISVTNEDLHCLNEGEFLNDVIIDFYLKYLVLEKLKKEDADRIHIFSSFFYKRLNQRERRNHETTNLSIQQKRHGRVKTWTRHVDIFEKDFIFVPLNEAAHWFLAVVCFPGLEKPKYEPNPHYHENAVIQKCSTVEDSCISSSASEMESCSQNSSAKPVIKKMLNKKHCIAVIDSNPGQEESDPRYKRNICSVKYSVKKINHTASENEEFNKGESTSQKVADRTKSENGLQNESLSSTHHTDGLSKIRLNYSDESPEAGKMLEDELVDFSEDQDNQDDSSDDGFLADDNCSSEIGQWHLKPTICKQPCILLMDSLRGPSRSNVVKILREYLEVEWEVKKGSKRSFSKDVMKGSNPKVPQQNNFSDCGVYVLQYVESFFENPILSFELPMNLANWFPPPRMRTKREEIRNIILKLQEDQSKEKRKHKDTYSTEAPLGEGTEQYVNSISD

For experiment [11], the target named is T2, Apoptotic protease-activating factor 1 (Homo sapiens, UniProt O14727).
T2 sequence (O14727 whole entry): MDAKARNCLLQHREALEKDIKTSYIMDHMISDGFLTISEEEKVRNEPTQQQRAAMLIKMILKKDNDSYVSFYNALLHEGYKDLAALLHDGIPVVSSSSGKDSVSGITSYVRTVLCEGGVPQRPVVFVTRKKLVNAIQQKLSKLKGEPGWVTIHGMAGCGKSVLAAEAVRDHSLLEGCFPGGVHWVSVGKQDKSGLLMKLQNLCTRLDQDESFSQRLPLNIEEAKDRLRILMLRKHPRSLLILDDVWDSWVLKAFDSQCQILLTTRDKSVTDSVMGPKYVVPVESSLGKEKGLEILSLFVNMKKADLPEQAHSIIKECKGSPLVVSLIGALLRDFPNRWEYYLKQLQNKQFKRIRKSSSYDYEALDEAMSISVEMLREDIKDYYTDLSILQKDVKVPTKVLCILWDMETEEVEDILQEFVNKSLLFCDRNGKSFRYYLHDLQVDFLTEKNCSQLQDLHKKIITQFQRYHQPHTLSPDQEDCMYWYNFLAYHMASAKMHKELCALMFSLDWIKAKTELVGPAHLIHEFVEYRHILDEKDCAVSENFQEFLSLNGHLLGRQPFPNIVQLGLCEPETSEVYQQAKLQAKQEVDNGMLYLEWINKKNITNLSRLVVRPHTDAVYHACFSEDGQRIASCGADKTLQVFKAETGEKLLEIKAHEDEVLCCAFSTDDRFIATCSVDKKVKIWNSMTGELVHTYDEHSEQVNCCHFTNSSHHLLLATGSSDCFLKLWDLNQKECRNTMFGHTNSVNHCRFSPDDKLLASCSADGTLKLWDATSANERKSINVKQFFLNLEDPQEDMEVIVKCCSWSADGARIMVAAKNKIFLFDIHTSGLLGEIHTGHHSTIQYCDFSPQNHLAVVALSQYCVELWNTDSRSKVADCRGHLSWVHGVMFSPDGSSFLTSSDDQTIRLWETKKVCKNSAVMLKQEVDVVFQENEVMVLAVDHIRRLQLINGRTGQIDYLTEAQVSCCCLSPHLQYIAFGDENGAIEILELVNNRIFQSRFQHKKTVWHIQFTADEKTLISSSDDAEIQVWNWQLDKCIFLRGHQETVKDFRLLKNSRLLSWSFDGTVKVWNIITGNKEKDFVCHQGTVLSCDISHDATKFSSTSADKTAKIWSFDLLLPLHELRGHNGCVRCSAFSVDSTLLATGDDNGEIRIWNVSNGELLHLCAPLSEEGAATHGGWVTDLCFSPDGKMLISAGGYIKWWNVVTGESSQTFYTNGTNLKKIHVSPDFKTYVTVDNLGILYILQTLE

The term Ki denotes a dissociation constant, usually derived from enzyme kinetics or from competition with a known ligand. The term IC50 denotes the point on the concentration scale where inhibition reaches its midpoint.

Sequence of Casein kinase II subunit alpha (P68400 whole entry, canonical isoform): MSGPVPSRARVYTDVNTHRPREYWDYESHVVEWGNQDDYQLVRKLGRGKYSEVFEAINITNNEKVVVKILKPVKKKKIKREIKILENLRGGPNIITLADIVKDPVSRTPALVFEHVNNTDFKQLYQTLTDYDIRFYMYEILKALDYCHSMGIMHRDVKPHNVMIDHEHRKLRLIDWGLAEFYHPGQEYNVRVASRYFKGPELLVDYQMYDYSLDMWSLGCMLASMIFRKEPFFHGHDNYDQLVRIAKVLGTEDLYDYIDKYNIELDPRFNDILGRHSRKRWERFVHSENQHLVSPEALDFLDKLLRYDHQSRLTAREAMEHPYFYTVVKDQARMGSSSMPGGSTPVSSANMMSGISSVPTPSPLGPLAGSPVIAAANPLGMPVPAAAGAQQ
Sequence of Phosphorylase b kinase gamma catalytic chain, liver/testis isoform (P15735 whole entry, canonical isoform): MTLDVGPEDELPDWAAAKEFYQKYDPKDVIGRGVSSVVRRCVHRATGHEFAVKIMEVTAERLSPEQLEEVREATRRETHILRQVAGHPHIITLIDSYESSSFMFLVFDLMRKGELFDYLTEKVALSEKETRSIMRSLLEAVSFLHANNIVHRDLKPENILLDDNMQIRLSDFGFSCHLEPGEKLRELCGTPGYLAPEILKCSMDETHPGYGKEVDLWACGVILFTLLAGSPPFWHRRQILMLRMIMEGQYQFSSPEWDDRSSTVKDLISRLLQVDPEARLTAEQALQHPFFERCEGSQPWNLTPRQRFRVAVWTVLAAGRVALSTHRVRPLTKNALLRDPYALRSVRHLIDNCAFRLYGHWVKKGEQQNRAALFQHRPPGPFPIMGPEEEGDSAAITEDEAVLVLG
Sequence of Casein kinase I isoform alpha (P48729 whole entry, canonical isoform): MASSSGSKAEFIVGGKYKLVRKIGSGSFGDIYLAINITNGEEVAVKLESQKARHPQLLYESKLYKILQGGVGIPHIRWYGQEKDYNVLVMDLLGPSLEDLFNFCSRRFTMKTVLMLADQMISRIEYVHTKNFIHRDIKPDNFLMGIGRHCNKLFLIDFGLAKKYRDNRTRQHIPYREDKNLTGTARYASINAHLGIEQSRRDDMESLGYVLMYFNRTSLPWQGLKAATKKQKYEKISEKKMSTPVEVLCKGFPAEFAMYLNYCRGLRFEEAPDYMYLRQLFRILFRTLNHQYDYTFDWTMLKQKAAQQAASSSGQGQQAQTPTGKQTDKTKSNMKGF
Sequence of Ribosomal protein S6 kinase alpha-5 (O75582 whole entry): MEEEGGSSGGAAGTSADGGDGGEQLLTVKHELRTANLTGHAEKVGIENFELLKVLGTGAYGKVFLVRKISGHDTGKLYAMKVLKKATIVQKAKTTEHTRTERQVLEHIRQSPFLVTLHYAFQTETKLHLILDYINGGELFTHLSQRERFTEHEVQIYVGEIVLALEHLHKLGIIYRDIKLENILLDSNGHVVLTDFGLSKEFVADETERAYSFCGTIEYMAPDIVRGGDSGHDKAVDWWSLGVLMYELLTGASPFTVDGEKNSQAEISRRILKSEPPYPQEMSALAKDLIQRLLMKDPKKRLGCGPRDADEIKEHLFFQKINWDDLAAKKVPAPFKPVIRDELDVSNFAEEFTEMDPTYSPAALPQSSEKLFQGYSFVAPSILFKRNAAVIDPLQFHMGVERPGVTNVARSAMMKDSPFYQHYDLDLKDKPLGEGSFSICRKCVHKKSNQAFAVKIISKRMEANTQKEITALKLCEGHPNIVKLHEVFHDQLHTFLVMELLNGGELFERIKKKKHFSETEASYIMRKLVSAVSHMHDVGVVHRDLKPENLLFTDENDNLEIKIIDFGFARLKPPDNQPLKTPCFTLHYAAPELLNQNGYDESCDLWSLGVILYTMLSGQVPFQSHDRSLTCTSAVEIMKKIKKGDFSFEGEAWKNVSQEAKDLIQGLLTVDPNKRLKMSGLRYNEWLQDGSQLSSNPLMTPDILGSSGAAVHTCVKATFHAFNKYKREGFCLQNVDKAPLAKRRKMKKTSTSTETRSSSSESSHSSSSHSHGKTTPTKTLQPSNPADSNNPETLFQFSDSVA
Sequence of Serine/threonine-protein kinase Chk2 (O96017 whole entry): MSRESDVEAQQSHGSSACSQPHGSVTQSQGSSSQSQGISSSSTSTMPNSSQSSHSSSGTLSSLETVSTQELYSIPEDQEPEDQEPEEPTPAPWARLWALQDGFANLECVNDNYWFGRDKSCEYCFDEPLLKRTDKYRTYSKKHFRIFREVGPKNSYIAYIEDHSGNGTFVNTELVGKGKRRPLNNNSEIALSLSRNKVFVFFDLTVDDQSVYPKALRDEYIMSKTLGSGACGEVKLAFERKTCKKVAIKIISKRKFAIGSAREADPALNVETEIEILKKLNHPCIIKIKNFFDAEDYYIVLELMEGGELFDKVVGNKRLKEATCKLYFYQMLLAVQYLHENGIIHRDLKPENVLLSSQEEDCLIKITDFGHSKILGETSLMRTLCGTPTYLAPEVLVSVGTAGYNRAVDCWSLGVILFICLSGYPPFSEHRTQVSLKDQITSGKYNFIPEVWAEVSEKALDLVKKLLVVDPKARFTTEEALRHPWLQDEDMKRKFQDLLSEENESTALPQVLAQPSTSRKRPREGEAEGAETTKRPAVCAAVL
Sequence of Protein kinase C iota type (P41743 whole entry): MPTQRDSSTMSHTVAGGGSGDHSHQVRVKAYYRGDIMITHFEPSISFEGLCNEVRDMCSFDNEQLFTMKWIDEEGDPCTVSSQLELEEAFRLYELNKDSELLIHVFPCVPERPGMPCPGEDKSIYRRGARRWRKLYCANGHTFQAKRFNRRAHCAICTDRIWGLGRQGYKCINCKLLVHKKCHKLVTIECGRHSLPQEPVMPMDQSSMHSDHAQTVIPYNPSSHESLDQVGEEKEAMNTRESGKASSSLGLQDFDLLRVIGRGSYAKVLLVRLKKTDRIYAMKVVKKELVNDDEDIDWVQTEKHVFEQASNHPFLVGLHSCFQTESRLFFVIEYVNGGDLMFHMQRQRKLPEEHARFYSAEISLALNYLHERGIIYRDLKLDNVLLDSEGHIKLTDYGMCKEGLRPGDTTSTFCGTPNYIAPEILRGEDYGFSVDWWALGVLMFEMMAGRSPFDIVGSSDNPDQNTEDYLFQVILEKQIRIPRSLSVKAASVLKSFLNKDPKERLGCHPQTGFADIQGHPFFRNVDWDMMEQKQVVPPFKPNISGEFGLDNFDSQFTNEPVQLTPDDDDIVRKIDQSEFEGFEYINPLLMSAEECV
Sequence of Hepatocyte growth factor receptor (P08581 whole entry): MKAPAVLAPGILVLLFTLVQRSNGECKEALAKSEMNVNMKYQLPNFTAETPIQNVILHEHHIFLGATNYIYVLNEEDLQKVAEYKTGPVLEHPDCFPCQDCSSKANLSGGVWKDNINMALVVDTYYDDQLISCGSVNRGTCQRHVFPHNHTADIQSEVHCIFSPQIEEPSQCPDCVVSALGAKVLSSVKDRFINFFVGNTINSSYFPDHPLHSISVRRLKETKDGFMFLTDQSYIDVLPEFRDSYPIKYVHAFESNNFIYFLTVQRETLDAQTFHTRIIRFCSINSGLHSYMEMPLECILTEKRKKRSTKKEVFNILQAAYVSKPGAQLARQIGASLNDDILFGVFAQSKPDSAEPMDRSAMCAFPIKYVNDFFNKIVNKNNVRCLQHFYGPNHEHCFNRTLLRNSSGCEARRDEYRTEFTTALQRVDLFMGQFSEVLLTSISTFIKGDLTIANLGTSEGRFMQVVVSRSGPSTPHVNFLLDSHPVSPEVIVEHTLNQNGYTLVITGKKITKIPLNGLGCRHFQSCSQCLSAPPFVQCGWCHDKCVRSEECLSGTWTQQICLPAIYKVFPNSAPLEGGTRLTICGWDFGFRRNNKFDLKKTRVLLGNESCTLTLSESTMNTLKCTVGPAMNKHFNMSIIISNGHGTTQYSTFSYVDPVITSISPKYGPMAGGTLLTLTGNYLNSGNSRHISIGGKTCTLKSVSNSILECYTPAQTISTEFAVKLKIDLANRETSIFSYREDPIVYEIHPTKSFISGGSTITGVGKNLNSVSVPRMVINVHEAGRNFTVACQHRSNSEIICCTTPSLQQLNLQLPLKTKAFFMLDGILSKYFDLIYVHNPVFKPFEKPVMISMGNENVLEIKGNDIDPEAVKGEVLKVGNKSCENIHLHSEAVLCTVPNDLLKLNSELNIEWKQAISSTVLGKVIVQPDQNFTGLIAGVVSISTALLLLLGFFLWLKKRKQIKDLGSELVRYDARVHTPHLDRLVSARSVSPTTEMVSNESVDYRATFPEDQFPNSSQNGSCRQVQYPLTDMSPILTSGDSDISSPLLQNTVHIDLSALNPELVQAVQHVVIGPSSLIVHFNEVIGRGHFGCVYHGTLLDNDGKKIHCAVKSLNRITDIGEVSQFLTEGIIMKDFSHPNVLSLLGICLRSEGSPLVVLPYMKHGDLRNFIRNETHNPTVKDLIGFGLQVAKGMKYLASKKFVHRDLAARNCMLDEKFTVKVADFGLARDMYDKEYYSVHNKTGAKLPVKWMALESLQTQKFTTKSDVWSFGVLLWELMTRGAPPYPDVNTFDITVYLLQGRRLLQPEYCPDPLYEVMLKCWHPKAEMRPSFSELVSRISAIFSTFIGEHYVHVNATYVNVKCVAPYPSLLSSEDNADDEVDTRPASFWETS
Sequence of Serine/threonine-protein kinase 3 (Q13188 whole entry): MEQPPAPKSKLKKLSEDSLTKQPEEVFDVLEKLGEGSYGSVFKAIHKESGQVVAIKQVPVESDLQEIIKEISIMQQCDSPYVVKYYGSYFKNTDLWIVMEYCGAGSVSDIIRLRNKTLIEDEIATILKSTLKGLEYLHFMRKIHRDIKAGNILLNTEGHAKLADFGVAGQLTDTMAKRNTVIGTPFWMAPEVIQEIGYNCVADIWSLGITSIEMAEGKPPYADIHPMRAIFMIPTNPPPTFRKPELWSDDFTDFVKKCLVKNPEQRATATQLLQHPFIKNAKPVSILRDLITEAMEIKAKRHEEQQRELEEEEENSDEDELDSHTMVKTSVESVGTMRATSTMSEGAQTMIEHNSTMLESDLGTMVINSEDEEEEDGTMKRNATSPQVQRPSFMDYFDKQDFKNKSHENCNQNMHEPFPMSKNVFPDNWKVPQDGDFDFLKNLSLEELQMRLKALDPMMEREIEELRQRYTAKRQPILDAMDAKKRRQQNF

On to `Cc1cccc(NC(=O)Nc2ccc3c(c2)CCc2sc4ncnc(N)c4c2-3)c1`, for which the Ki was > 5.01 µM (inactive) in [1]; 1.26 µM (active) in experiment [2]; > 6.31 µM (inactive) in [3]; > 6.31 µM (inactive) in experiment [4]; > 2 µM (inactive) in experiment [5]; > 3.16 µM (inactive) in experiment [6]. In addition, the Ki in experiment [7] is > 1.58 µM (inactive); in [8], > 5.01 µM (inactive); in experiment [9], > 7.94 µM (inactive).

For the compound `CC(=O)N(/N=C1\Sc2ccccc2C1=O)c1ccccc1C`, the results for the IC50 in experiment [10] and in experiment [11] were 1.91 µM (active) and 5.13 µM (active), respectively.
